Results: patent US4342827A, “Production of enzymes” (Public Health Laboratory Service, Center for Applied …, priority 1978, dated 1982)

molecular target: T1, glycerol dehydrogenase (GDH) (Geobacillus stearothermophilus, UniProt P32816); assay: GDH assay against analogous substrates, activities (Vmax) relative to glycerol; assay type: biochemical, Bacillus stearothermophilus; settings: 30° C., pH 8.5; substrate instead of glycerol
T1 construct: crude, partially or highly purified (DEAE-cellulose, triazine dye-agarose, gel filtration)
Method: The thermostable GDH enzymes produced from the strains of Bacillus stearothermophilus described above typically have a structure composed of four identical or similar sub-units each of molecular weight about 60,000 giving an overall molecular weight of about 240,000±30,000 daltons. When homogeneous and tested by the assay method described below they have a specific activity of at least 5 and normally about 10 to 30 units per mg protein at 30° C. and pH 8.5. When tested under similar conditions against analogous substrates the activities (Vmax) relative to glycerol (100%) were:
Assays for GDH activity were carried out by the following procedure and all references to activities in the present description and claims refer to activity as measured by this assay.
(i) 0.25 M Triethanolamine-HCl (pH 8.5).
(iii) 10 mg/ml NAD (nicotinamide adenine dinucleotide)
600 μl, H2 O, 200 μl triethanolamine-HCl solution, 25 μl NAD solution and 5 to 200 μl of the sample to be assayed were mixed in a cuvette (pathlength 1 cm.). After pre-equilibration to attain 30° C., 100 μl of glycerol solution was added to initiate the reaction.
The reduction of NAD was followed by spectrophotometric means, by observing the absorbance of the solution at 340 nm. Either a water or reagent blank was used, and units were expressed as μmoles of NADH formed per minute at 30° C. with dilution to give ΔOD340 in the range 0.06 to 0.12 per minute.

T1 sequence (P32816 whole entry): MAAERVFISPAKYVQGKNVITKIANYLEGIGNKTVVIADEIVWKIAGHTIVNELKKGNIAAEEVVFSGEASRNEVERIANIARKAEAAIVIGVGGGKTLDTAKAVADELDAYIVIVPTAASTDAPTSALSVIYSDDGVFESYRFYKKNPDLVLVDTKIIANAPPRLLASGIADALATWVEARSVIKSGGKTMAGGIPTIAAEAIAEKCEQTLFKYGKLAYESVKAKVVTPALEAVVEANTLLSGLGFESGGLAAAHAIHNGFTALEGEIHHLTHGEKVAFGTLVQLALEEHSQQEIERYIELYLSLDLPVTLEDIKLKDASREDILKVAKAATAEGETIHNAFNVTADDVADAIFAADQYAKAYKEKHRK

Structure (SMILES)	activity (Vmax) relative to glycerol (100%)
O=C(O)C(O)CO (stereo not drawn) [glyceric acid]	< 10%
CC(O)CO (stereo not drawn) [propane1, 2 diol]	165%

Other lines, results leading:

activity (Vmax) relative to glycerol (100%)	Structure (SMILES)
49%	OCCC(O)S (stereo not drawn) [3-mercapto-propane1, 3 diol]
< 10%	O=C(CO)CO [dihydroxyacetone]
16%	OCCCO [propane1, 3diol]

same assay, conditions: high concentrations

effect on GDH activity	Structure (SMILES)
inhibited	N [NH4^+ ions]
